Data on 36 compounds can be found in patent US20240335443A1, “IMIDAZOLOPYRIDAZINE OR PYRAZOLOPYRIMIDINE COMPOUNDS AND COMPOSITIONS” (Anrui Biomedical Technology (Guangzhou) Co., Ltd., priority 2021, published 2024).

The IC50 is the concentration that gives 50% inhibition.

The structures appear in SMILES notation. Read-outs that look alike come from different tables or passages of the source. Bounds are passed on as bounds.

Experiment [1] deals with T1, N-terminal His-tagged TYK2 pseudokinase domain (Homo sapiens, UniProt P29597).
T1 construct: the N-terminal His-tagged TYK2 pseudokinase domain; His (N); purchased Pharmaron
The experiment is described as follows: TYK2 JH2 domain SPA binding assay. Particulars: displacement of H3 probe (20 nM), 30 min room temperature; class symbols. Here is the method:
TYK2 JH2 Domain Binding Assay
After incubating at room temperature for 30 min, the inhibition was calculated by the displacement of [3H] 3 binding as determined by scintillation counting. Dose-response curves were generated to determine the concentration required to inhibit H3 probe binding by […] (IC50).

Experiment [2] relates to IL-23 induced STAT3 in HEK-Blue™ IL-23 cells. The experiment is described as follows: IL-23 induced STAT3 QUANTI-Blue reporter assay in HEK-Blue IL-23 cells. It counts as cell-based. The conditions noted are these: IL-23 0.1 ng/mL, SEAP levels, class symbols, read-out: IL23 reporter assay (IC50 nM). The protocol:
Biological Example 2. IL-23 Induced STAT3 QUANTI-Blue in HEK-Blue™ IL-23 Cells
HEK-Blue™ IL-23 cells were prepared at 2×10^5 cells/ml for adding 5000 cell/well and incubate plates containing compounds+cells for 1 hour at 37° C. Prepare IL-23 (treatment at final conc. 0.1 ng/mL) during incubation and add 2 ul per well of prepared cytokine in media to appropriate wells. The plate is incubated for overnight at 37° C. The next day, QUANTI-Blue solution is prepared. 18 ul of QUANTI-Blue solution per well is added into a new 384-well clear flat bottom plate, then add 2 ul of induced and treated HEK-Blue cell supernatant from overnight plate. Incubate the plate at 37° C. for 2 hours and determine SEAP levels.
(In general: A reporter such as luciferase makes a cellular process visible.)

The mark [3] stands for this setting: HEK-Blue IL-23, HEK-Blue IL-23 cells.

T1 sequence (P29597 589-875 limits assumed): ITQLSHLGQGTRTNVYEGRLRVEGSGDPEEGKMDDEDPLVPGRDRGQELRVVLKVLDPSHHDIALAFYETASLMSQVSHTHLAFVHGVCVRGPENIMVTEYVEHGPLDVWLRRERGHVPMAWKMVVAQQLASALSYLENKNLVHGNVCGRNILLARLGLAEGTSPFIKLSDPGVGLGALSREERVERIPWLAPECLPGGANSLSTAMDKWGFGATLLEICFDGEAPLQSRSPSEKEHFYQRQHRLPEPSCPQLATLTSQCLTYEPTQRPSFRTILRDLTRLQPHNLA

For `CNc1cc(Nc2cccn(-c3ccccc3)c2=O)nn2c(C(=O)NC3CCn4ncnc43)cnc12` (racemic) [Compound 47], the IC50 in experiment [1] was 10 to 100 nM; in experiment [2] (setting [3]) it was less than 10 nM.

As to `CNc1cc(Nc2cccn(-c3ccn(C)n3)c2=O)nc2c(C(=O)N[C@@H]3C[C@H]4CCO[C@H]43)cnn12` (racemic) [Compound 51], the values for the IC50 in experiment [1] and in experiment [2] (setting [3]) were 100 to 1000 nM and 10 to 100 nM, respectively.

In the case of `CNc1cc(Nc2cccn([C@H]3C[C@H](F)C3)c2=O)nn2c(C(=O)NC3CCn4ncnc43)cnc12` (mixture of isomers) [Compound 91], the IC50 in experiment [1] and in experiment [2] (setting [3]) was 10 to 100 nM throughout.

Turning to `CNc1cc(Nc2cccc3c2OCCC3)nn2c(C(=O)NC(C)c3ncco3)cnc12` (single isomer, unassigned) [Compound 22a], the IC50 was greater than 1000 nM in experiment [1] and no less than 1000 nM in experiment [2] (HEK-Blue IL-23 cells).

Consider `CNc1cc(Nc2cccc3c2OCCC3)nn2c(C(=O)NC(C)c3ncco3)cnc12` (single isomer, unassigned) [Compound 22b], for which the concentration for half-maximal inhibition (IC50) in experiment [1] and in experiment [2] (HEK-Blue IL-23 cells) was less than 10 nM throughout.

With `CNc1cc(Nc2cccc3c2OCCC3)nc2c(C(=O)NC(C)c3ncco3)cnn12` (single isomer, unassigned) [Compound 23a], the IC50 in experiment [1] is 100 to 1000 nM; in experiment [2] (HEK-Blue IL-23 cells), no less than 1000 nM.

Consider `CNc1cc(Nc2cccc3c2OCCC3)nc2c(C(=O)NC(C)c3ncco3)cnn12` (single isomer, unassigned) [Compound 23b], for which the IC50 was less than 10 nM in experiment [1] and 10 to 100 nM in experiment [2] (HEK-Blue IL-23 cells).

As for `CNc1cc(Nc2cccn(-c3ccccn3)c2=O)nc2c(C(=O)NC(C)c3ncco3)cnn12` (single isomer, unassigned) [Compound 36b], the IC50 in experiment [1] and in experiment [2] (HEK-Blue IL-23 cells) was 10 to 100 nM in each case.

On to `CNc1cc(Nc2cccn(-c3ccn(C)n3)c2=O)nn2c(C(=O)NC(C)c3ncco3)cnc12` (single isomer, unassigned) [Compound 49a], for which the values for the IC50 in experiment [1] and in experiment [2] (HEK-Blue IL-23 cells) were 10 to 100 nM and less than 10 nM, respectively.

Consider `CNc1cc(Nc2cccn(-c3ccn(C)n3)c2=O)nn2c(C(=O)NC(C)c3ncco3)cnc12` (single isomer, unassigned) [Compound 49b], for which the IC50 in experiment [1] was greater than 1000 nM; in experiment [2] (HEK-Blue IL-23 cells) it was no less than 1000 nM.

For the compound `CNc1cc(Nc2cccn(CC3CCCO3)c2=O)nn2c(C(=O)N[C@@H]3C[C@H]4CCO[C@H]43)cnc12` (single isomer, unassigned) [Compound 62a], the results for the IC50 in experiment [1] and in experiment [2] (setting [3]) were 100 to 1000 nM and 10 to 100 nM, respectively.

Turning to `CNc1cc(Nc2cccn(CC3CCCO3)c2=O)nn2c(C(=O)N[C@@H]3C[C@H]4CCO[C@H]43)cnc12` (single isomer, unassigned) [Compound 62b], the concentration for half-maximal inhibition (IC50) in experiment [1] and in experiment [2] (HEK-Blue IL-23 cells) was 10 to 100 nM each time.

`[2H]C([2H])([2H])Nc1cc(Nc2cccn(C3CCCC4(COC4)C3)c2=O)nn2c(C(=O)N[C@@H]3C[C@H]4CCO[C@H]43)cnc12` (single isomer, unassigned) [Compound 68a]: the IC50 in experiment [1] and in experiment [2] (setting [3]) was 10 to 100 nM each time.

`[2H]C([2H])([2H])Nc1cc(Nc2cccn(C3CCCC4(COC4)C3)c2=O)nn2c(C(=O)N[C@@H]3C[C@H]4CCO[C@H]43)cnc12` (single isomer, unassigned) [Compound 68b]: the IC50 is 10 to 100 nM in experiment [1] and less than 10 nM in experiment [2] (HEK-Blue IL-23 cells).

With `[2H]C([2H])([2H])Nc1cc(Nc2cccn(C3CCCC4(COC4)C3)c2=O)nn2c(C(=O)N[C@@H]3C[C@@H]3F)cnc12` (single isomer, unassigned) [Compound 75a], the IC50 in experiment [1] and in experiment [2] (HEK-Blue IL-23 cells) was 100 to 1000 nM throughout.

As for `[2H]C([2H])([2H])Nc1cc(Nc2cccn(C3CCCC4(COC4)C3)c2=O)nn2c(C(=O)N[C@@H]3C[C@@H]3F)cnc12` (single isomer, unassigned) [Compound 75b], the IC50 in experiment [1] and in experiment [2] (HEK-Blue IL-23 cells) was 10 to 100 nM in each case.

As to `CNc1cc(Nc2cccn(C3C[C@H]4CC[C@@H](C3)O4)c2=O)nn2c(C(=O)N[C@@H]3C[C@@H]3F)cnc12` (single isomer, unassigned) [Compound 79a], the IC50 in experiment [1] and in experiment [2] (setting [3]) was 10 to 100 nM each time.

Consider `CNc1cc(Nc2cccn(C3C[C@H]4CC[C@@H](C3)O4)c2=O)nn2c(C(=O)N[C@@H]3C[C@@H]3F)cnc12` (single isomer, unassigned) [Compound 79b], for which the IC50 was 10 to 100 nM in experiment [1] and less than 10 nM in experiment [2] (HEK-Blue IL-23 cells).

`CNc1cc(Nc2cccn([C@H]3C[C@H](OC)C3)c2=O)nn2c(C(=O)NC3CCC4CCOC43)cnc12` (single isomer, unassigned) [Compound 88a]: the IC50 in experiment [1] was 10 to 100 nM; in experiment [2] (HEK-Blue IL-23 cells), less than 10 nM.

Consider `CNc1cc(Nc2cccn([C@H]3C[C@H](OC)C3)c2=O)nn2c(C(=O)NC3CCC4CCOC43)cnc12` (single isomer, unassigned) [Compound 88b], for which the IC50 in experiment [1] and in experiment [2] (HEK-Blue IL-23 cells) was 100 to 1000 nM in each case.

For the compound `CNc1cc(Nc2cccn(C3CC(C)(OC)C3)c2=O)nn2c(C(=O)N[C@@H]3C[C@H]4CCO[C@H]43)cnc12` (single isomer, unassigned) [Compound 92a], the 50% inhibitory concentration (IC50) in experiment [1] and in experiment [2] (setting [3]) was 10 to 100 nM throughout.

For `[2H]C([2H])([2H])OC1(C)CC(n2cccc(Nc3cc(NC)c4ncc(C(=O)N[C@@H]5C[C@H]6CCO[C@H]65)n4n3)c2=O)C1` (single isomer, unassigned) [Compound 93a], the IC50 in experiment [1] and in experiment [2] (setting [3]) was 10 to 100 nM each time.

In the case of `[2H]C([2H])([2H])OC1(C)CC(n2cccc(Nc3cc(NC)c4ncc(C(=O)N[C@@H]5C[C@H]6CCO[C@H]65)n4n3)c2=O)C1` (single isomer, unassigned) [Compound 93b], the IC50 in experiment [1] and in experiment [2] (HEK-Blue IL-23 cells) was 10 to 100 nM in each case.

With `[2H]C([2H])([2H])Nc1cc(Nc2cccn(C3CC4OCCC43)c2=O)nn2c(C(=O)N[C@@H]3C[C@H]4CCO[C@H]43)cnc12` (single isomer, unassigned) [Compound 94a], the IC50 in experiment [1] and in experiment [2] (setting [3]) was 10 to 100 nM throughout.

Consider `[2H]C([2H])([2H])Nc1cc(Nc2cccn(C3CC4OCCC43)c2=O)nn2c(C(=O)N[C@@H]3C[C@H]4CCO[C@H]43)cnc12` (single isomer, unassigned) [Compound 94b], for which the IC50 in experiment [1] and in experiment [2] (HEK-Blue IL-23 cells) was 10 to 100 nM throughout.

As to `CNc1cc(Nc2cccn([C@@H]3C[C@H]4CCO[C@H]43)c2=O)nn2c(C(=O)NC3CCC4CCOC43)cnc12` (single isomer, unassigned) [Compound 95a], the IC50 was 10 to 100 nM in experiment [1] and less than 10 nM in experiment [2] (HEK-Blue IL-23 cells).

As for `CNc1cc(Nc2cccn([C@@H]3C[C@H]4CCO[C@H]43)c2=O)nn2c(C(=O)NC3CCC4CCOC43)cnc12` (single isomer, unassigned) [Compound 95b], the IC50 in experiment [1] is greater than 1000 nM; in experiment [2] (HEK-Blue IL-23 cells) it was no less than 1000 nM.

In the case of `[2H]C([2H])([2H])Nc1cc(Nc2cccn(C3CC4(CCOC4)C3)c2=O)nn2c(C(=O)N[C@@H]3C[C@H]4CCO[C@H]43)cnc12` (single isomer, unassigned) [Compound 96a], the IC50 in experiment [1] and in experiment [2] (setting [3]) was 10 to 100 nM in each case.

Regarding `[2H]C([2H])([2H])Nc1cc(Nc2cccn(C3CC4(CCOC4)C3)c2=O)nn2c(C(=O)N[C@@H]3C[C@H]4CCO[C@H]43)cnc12` (single isomer, unassigned) [Compound 96b], the IC50 in experiment [1] and in experiment [2] (HEK-Blue IL-23 cells) was 10 to 100 nM in each case.

As for `[2H]C([2H])([2H])Nc1cc(Nc2cccn(C3CC4(CCOC4)C3)c2=O)nc2c(C(=O)N[C@@H]3C[C@H]4CCO[C@H]43)cnn12` (single isomer, unassigned) [Compound 97a], the IC50 in experiment [1] and in experiment [2] (setting [3]) was 10 to 100 nM each time.

On to `[2H]C([2H])([2H])Nc1cc(Nc2cccn(C3CC4(CCOC4)C3)c2=O)nc2c(C(=O)N[C@@H]3C[C@H]4CCO[C@H]43)cnn12` (single isomer, unassigned) [Compound 97b], for which the IC50 in experiment [1] and in experiment [2] (HEK-Blue IL-23 cells) was 10 to 100 nM throughout.

With `[2H]C([2H])([2H])Nc1cc(Nc2cccn(C3CC4(CCCO4)C3)c2=O)nn2c(C(=O)N[C@@H]3C[C@H]4CCO[C@H]43)cnc12` (single isomer, unassigned) [Compound 98a], the IC50 in experiment [1] and in experiment [2] (setting [3]) was 10 to 100 nM throughout.

Take `[2H]C([2H])([2H])Nc1cc(Nc2cccn(C3CC4(CCCO4)C3)c2=O)nn2c(C(=O)N[C@@H]3C[C@H]4CCO[C@H]43)cnc12` (single isomer, unassigned) [Compound 98b]: the IC50 in experiment [1] and in experiment [2] (HEK-Blue IL-23 cells) was 10 to 100 nM in each case.

On to `[2H]C([2H])([2H])Nc1cc(Nc2cccn(C3CC4OCCC43)c2=O)nn2c(C(=O)N[C@@H]3C[C@@H]3F)cnc12` (single isomer, unassigned) [Compound 101a], for which the IC50 in experiment [1] and in experiment [2] (setting [3]) was 10 to 100 nM in each case.

With `[2H]C([2H])([2H])Nc1cc(Nc2cccn(C3CC4OCCC43)c2=O)nn2c(C(=O)N[C@@H]3C[C@@H]3F)cnc12` (single isomer, unassigned) [Compound 101b], the IC50 in experiment [1] and in experiment [2] (HEK-Blue IL-23 cells) was 10 to 100 nM in each case.

For `[2H]C([2H])([2H])Nc1cc(Nc2cccn(C3CC4(CCOC4)C3)c2=O)nn2c(C(=O)N[C@@H]3C[C@@H]3F)cnc12` (single isomer, unassigned) [Compound 102a], the IC50 in experiment [1] and in experiment [2] (setting [3]) was 10 to 100 nM throughout.
